According to patent US12643871B2, “Aryl formamide compound containing chiral sulfur oxide or salt thereof, preparation method, herbicidal composition and use thereof” (Qingdao Kingagroot Chemical Compound Co., Ltd., priority 2019, dated 2026):

Experiments:
Rice = experiment: Transplanted rice safety evaluation; assay type: in vivo, rice (japonica rice/Indica rice); settings: 60 g/ha; transplanted 3 leaf stage rice, 21 days after treatment
Excerpt: (§1) The activity level criteria for harmful plant damage (i.e., growth control rate) are as follows: • Level 5: growth control rate is above 85%; • Level 4: growth control rate is greater than or equal to 60% and less than 85%; • Level 3: growth control rate is greater than or equal to 40% and less than 60%; • Level 2: growth control rate is greater than or equal to 20% and less than 40%; • Level 1: growth control rate is greater than or equal to 5% and less than 20%; • Level 0: growth control rate is less than 5%.
In addition, the rice field soil that loaded into the 1/1,000,000 ha pot was leveled to keep water storage at 3-4 cm depth. The 3 leaf stage rice (japonica rice/Indica rice) was transplanted at 3 cm of transplanting depth the next day. The compound of the present invention was treated by the same way after 5 days of transplantation.
(§2) The fertility condition of Echinochloa crusgali, Scirpus juncoides, Bidens tripartita, Leptochloa chinensis, Sagittaria trifolia and Monochoria vaginalis 14 days after the treatment of the compound of the invention and the fertility condition of rice 21 days after the treatment of the compound of the invention respectively with the naked eye. Evaluate the weed control effect with 0-5 activity standard level. Many compounds show excellent activity and selectivity.

Echinochloa crusgali [1] = experiment: Weed control effect evaluation in rice field; assay type: in vivo; settings: rice field pot, 14 days after treatment, ALS-inhibitor resistant weed from Heilongjiang
Excerpt: as §1
(§3) Rice field soil was loaded into a 1/1,000,000 ha pot. The seeds of Echinochloa crusgali, Scirpus juncoides, Bidens tripartita, Sagittaria trifolia, Monochoria vaginalis and Leptochloa chinensis were sowed and gently covered with soil, then left to stand still in greenhouse in the state of 0.5-1 cm of water storage. The tuber of Sagittaria trifolia was planted in the next day or 2 days later. It was kept at 3-4 cm of water storage thereafter. The weeds were treated by dripping the WP or SC water diluents prepared according to the common preparation method of the compounds of the present invention with pipette homogeneously to achieve specified effective amount when Echinochloa crusgali, Scirpus juncoides, Bidens tripartita, Monochoria vaginalis and Leptochloa chinensis reached 0.5 leaf stage and Sagittaria trifolia reached the time point of primary leaf stage.
as §2

Sagittaria trifolia = experiment: Weed control effect evaluation in rice field; assay type: in vivo; settings: rice field pot, 14 days after treatment, ALS-inhibitor resistant weed from Heilongjiang
Excerpt: as §1, §3, §2

Leptochloa chinensis = experiment: Weed control effect evaluation in rice field; assay type: in vivo; settings: rice field pot, 14 days after treatment
Excerpt: as §1, §3, §2

Monochoria vaginalis = experiment: Weed control effect evaluation in rice field; assay type: in vivo; settings: rice field pot, 14 days after treatment, ALS-inhibitor resistant weed from Heilongjiang
Excerpt: as §1, §3, §2

Setaria viridis = experiment: Weeding effect in post-emergence stage; assay type: in vivo; settings: 250 g/ha; 2 leaf stage; 15 days after application; fresh weight control rate
Procedure, shortened: (§4)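 Post-emergence spray, 2-leaf stage; doses 500–15 g/ha; acetone + Tween 80 + methyl oleate EC (1.5 L/ha) as synergist. Greenhouse 15 d. Readout: fresh weight control rate graded levels 0–5 (5 = above 85%, 0 = below 5%); triplicate means.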

Echinochloa crusgali [2] = experiment: Weeding effect in post-emergence stage; assay type: in vivo; settings: 250 g/ha; 2 leaf stage; 15 days after application; fresh weight control rate
Procedure, shortened: as §4

Abutilon theophrasti = experiment: Weeding effect in post-emergence stage; assay type: in vivo; settings: 250 g/ha; 2 leaf stage; 15 days after application; fresh weight control rate
Procedure, shortened: as §4

Digitaria sanguinalis = experiment: Weeding effect in post-emergence stage; assay type: in vivo; settings: 250 g/ha; 2 leaf stage; 15 days after application; fresh weight control rate
Procedure, shortened: as §4

Amaranthus retroflexus = experiment: Weeding effect in post-emergence stage; assay type: in vivo; settings: 250 g/ha; 2 leaf stage; 15 days after application; fresh weight control rate
Procedure, shortened: as §4

[3] = tested on: key weeds such as Digitaria sanguinalis, Leptochloa chinensis; experiment: Comparison experiment (post-emergence, Tables 4-7), herbicidal activity on weeds not listed separately; assay type: in vivo; settings: dose of 125, 60, 30, 15 g/ha
Procedure, shortened: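 Weeds sown in soil-filled pots, covered with 0.5-2 cm soil and grown in greenhouse; sprayed at 2-leaf stage (2 weeks after sowing) with compound in acetone/Tween 80 plus 1.5 liter/ha methyl oleate concentrate. Doses 500–15 g/ha; fresh weight control rated after 15 days, mean of three repeats.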

rice and other crops = experiment: Comparison experiment (post-emergence, Tables 4-7), crop safety; assay type: in vivo; settings: dose of 125, 60, 30, 15 g/ha
Procedure, shortened: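 Compounds are applied post-emergence by spray tower to plants at the 2 leaf stage, at rates from 15 to 500 g/ha with a methyl oleate synergist. Control is expressed on fresh weight, counted after 15 days in the greenhouse and averaged across three repetitions.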

Structure (SMILES)	Herbicidal effects of compounds, Rice, 0-5 activity standard level (Rice)	Herbicidal effects of compounds, Echinochloa crusgali, 0-5 activity standard level (Echinochloa crusgali [1]; 60 g/ha)	Herbicidal effects of compounds, Sagittaria trifolia, 0-5 activity standard level (Sagittaria trifolia; 60 g/ha)	Herbicidal effects of compounds, Leptochloa chinensis, 0-5 activity standard level (Leptochloa chinensis; 60 g/ha)	Herbicidal effects of compounds, Monochoria vaginalis, 0-5 activity standard level (Monochoria vaginalis; 60 g/ha)	weeding effect in post-emergence stage, activity level (growth control rate), Setaria viridis (Setaria viridis)	weeding effect in post-emergence stage, activity level (growth control rate), Echinochloa crusgali (Echinochloa crusgali [2])	weeding effect in post-emergence stage, activity level (growth control rate), Abutilon theophrasti (Abutilon theophrasti)	weeding effect in post-emergence stage, activity level (growth control rate), Digitaria sanguinalis (Digitaria sanguinalis)	weeding effect in post-emergence stage, activity level (growth control rate), Amaranthus retroflexus (Amaranthus retroflexus)	activity to key weeds such as Digitaria sanguinalis, Leptochloa chinensis compared with the corresponding racemate or S configuration [3]	safety to rice and other crops compared with the corresponding racemate or S configuration (rice and other crops)	Herbicidal effects of compounds, Echinochloa crusgali, 0-5 activity standard level (Echinochloa crusgali [1]; 30 g/ha)	Herbicidal effects of compounds, Sagittaria trifolia, 0-5 activity standard level (Sagittaria trifolia; 30 g/ha)	Herbicidal effects of compounds, Leptochloa chinensis, 0-5 activity standard level (Leptochloa chinensis; 30 g/ha)	Herbicidal effects of compounds, Monochoria vaginalis, 0-5 activity standard level (Monochoria vaginalis; 30 g/ha)
Cc1nnc(NC(=O)c2ccc(C(F)(F)F)c([S@+]([O-])CC(C)C)c2F)o1 [Compound 6]	0 (Level 0: growth control rate is less than 5%)	5 (Level 5: growth control rate is above 85%)	5 (Level 5: growth control rate is above 85%)	5 (Level 5: growth control rate is above 85%)	5 (Level 5: growth control rate is above 85%)	5 (Level 5: growth control rate is above 85%)	5 (Level 5: growth control rate is above 85%)	5 (Level 5: growth control rate is above 85%)	5 (Level 5: growth control rate is above 85%)	5 (Level 5: growth control rate is above 85%)	–	–	–	–	–	–
Cc1nnc(NC(=O)c2ccc(C(F)(F)F)c([S@+]([O-])CCCCl)c2F)o1 [Compound 37]	0 (Level 0: growth control rate is less than 5%)	5 (Level 5: growth control rate is above 85%)	5 (Level 5: growth control rate is above 85%)	5 (Level 5: growth control rate is above 85%)	5 (Level 5: growth control rate is above 85%)	5 (Level 5: growth control rate is above 85%)	5 (Level 5: growth control rate is above 85%)	5 (Level 5: growth control rate is above 85%)	5 (Level 5: growth control rate is above 85%)	5 (Level 5: growth control rate is above 85%)	–	–	–	–	–	–
CCCC[S@@+]([O-])c1c(C(F)(F)F)ccc(C(=O)Nc2nnc(C)o2)c1F [Compound 4]	0 (Level 0: growth control rate is less than 5%)	5 (Level 5: growth control rate is above 85%)	5 (Level 5: growth control rate is above 85%)	5 (Level 5: growth control rate is above 85%)	5 (Level 5: growth control rate is above 85%)	5 (Level 5: growth control rate is above 85%)	5 (Level 5: growth control rate is above 85%)	5 (Level 5: growth control rate is above 85%)	5 (Level 5: growth control rate is above 85%)	5 (Level 5: growth control rate is above 85%)	better activity	higher safety	–	–	–	–
COc1cnc(OC)n2nc(NS(=O)(=O)c3c(OCC(F)F)cccc3C(F)(F)F)nc12 [Penoxsulam, reference compound]	–	–	–	–	–	–	–	–	–	–	–	–	0 (Level 0: growth control rate is less than 5%)	0 (Level 0: growth control rate is less than 5%)	1 (Level 1: growth control rate is greater than or equal to 5% and less than 20%)	1 (Level 1: growth control rate is greater than or equal to 5% and less than 20%)
Cc1nnc(NC(=O)c2ccc(C(F)(F)F)c([S@+]([O-])CCCF)c2F)o1 [Compound 26]	0 (Level 0: growth control rate is less than 5%)	5 (Level 5: growth control rate is above 85%)	5 (Level 5: growth control rate is above 85%)	5 (Level 5: growth control rate is above 85%)	5 (Level 5: growth control rate is above 85%)	5 (Level 5: growth control rate is above 85%)	5 (Level 5: growth control rate is above 85%)	5 (Level 5: growth control rate is above 85%)	5 (Level 5: growth control rate is above 85%)	5 (Level 5: growth control rate is above 85%)	better activity	higher safety	–	–	–	–
Cc1nnc(NC(=O)c2ccc(C(F)(F)F)c([S@+]([O-])C3COC3)c2F)o1 [Compound 79]	0 (Level 0: growth control rate is less than 5%)	5 (Level 5: growth control rate is above 85%)	5 (Level 5: growth control rate is above 85%)	5 (Level 5: growth control rate is above 85%)	5 (Level 5: growth control rate is above 85%)	5 (Level 5: growth control rate is above 85%)	5 (Level 5: growth control rate is above 85%)	5 (Level 5: growth control rate is above 85%)	5 (Level 5: growth control rate is above 85%)	5 (Level 5: growth control rate is above 85%)	–	–	–	–	–	–
